Literature values as cited in patent US10194693B2, “Aerosol generating device” (FONTEM HOLDINGS 1 B.V., priority 2013, dated 2019).

## CN1CCCC1c1cccnc1 (centres unmarked) [nicotine]
Smoking a cigarette
  time to peak increments of plasma nicotine concentration: ≤ 10 min
Smoking a single cigarette
  peak increments of plasma nicotine concentration: 5 to 30 ng/mL
